{"source": "patent EP3960748A1", "about": "“COMPOSITION FOR THE TREATMENT OF THE SIDE EFFECTS OF RADIOTHERAPY AND/OR CHEMOTHERAPY” (Fundación Profesor Novoa Santos, priority 2019, dated 2020)", "format_in_all_cases": "cell-based", "key": {"MMP-3": {"test_system": "MMP-3", "test": "Gene expression analysis (qPCR) of MMP-3", "details": "Fig. 5B; 72 hours, BIRB796 2.5 µM; 55 Grays; normalized against HPRT1, compared to non-radiated healthy fibroblast control", "from_the_text": "(§1) Skin tissue biopsies from female patients of A Coruña University Hospital Complex - A Coruña Integrated Management Services (Complejo Hospitalario Universitario de A Coruña - Xerencia Xestión Integrada A Coruña (CHUAC-XXIAC)) were obtained from operations for the surgical removal of a benign pathology (fibroadenoma, samples consisting of untreated healthy skin) and from oncology interventions (samples consisting of skin subjected to radiotherapy and chemotherapy). Signed informed consent was received from each of the patients (2015/029, C.0003333, 2016/077). To isolate primary fibroblast from these samples, hypodermal fat was removed with the aid of a scalpel, and the epidermis was segmented into fragments of about 1x1 cm (explants). Lines were made with a scalpel on a 100 cm^2 adherent Petri dish creating a grid, and each of the explants was placed in the resulting intersections with the epidermis facing up and the dermis in contact with the dish. […] The working concentrations of said compounds were determined by means of literature review and cell viability assays (MTT). […]\n(§2) For RNA extraction from the different cell types, TRI Reagent (MRC) was used following the manufacturer's instructions. […] The amount and quality of the obtained RNA was quantified in Nanodrop ND-1000. […]"}, "IL-1β": {"test_system": "IL-1β", "test": "Gene expression analysis (qPCR) of IL-1β", "details": "Fig. 5C; 72 hours, BIRB796 2.5 µM with or without oleuropein; 55 Grays; normalized against HPRT1", "from_the_text": "as §1, §2"}, "p53": {"test_system": "p53", "test": "Western blot of p53 in radiated fibroblasts", "details": "Fig. 7; post-radiation treatment for 72 hours; oleuropein 10 µM, BIRB796 2.5 µM; 55 Grays; relative to tubulin", "from_the_text": "as §1"}, "p21 [1]": {"test_system": "p21", "test": "Western blot of p21 in radiated fibroblasts", "details": "Fig. 7; post-radiation treatment for 72 hours; oleuropein 10 µM, BIRB796 2.5 µM; 55 Grays; relative to tubulin", "from_the_text": "as §1"}, "IL-6": {"test_system": "IL-6", "test": "Gene expression analysis (qPCR) of IL-6", "details": "Fig. 5C; 72 hours, BIRB796 2.5 µM with or without oleuropein; 55 Grays; normalized against HPRT1", "from_the_text": "as §1, §2"}, "p21 [2]": {"test_system": "p21", "test": "Gene expression analysis (qPCR) of p21", "details": "Fig. 8; 72 hours; oleuropein 10 µM, BIRB796 2.5 µM; 55 Grays; normalized against HPRT1", "from_the_text": "as §1, §2"}}, "data": [{"smiles": "Cc1ccc(-n2nc(C(C)(C)C)cc2NC(=O)Nc2ccc(OCCN3CCOCC3)c3ccccc23)cc1", "note": "[BIRB796, doramapimod]", "values": [{"measurement": "MMP-3 mRNA levels", "setting": "MMP-3", "result": "protects against the synthesis of SASP components such as MMP-3"}, {"measurement": "IL-1β mRNA levels", "setting": "IL-1β", "result": "decreases synthesis of the inflammatory component"}, {"measurement": "protein levels of p53", "setting": "p53", "result": "effectively reduced protein levels of both factors"}, {"measurement": "protein levels of p21", "setting": "p21 [1]", "result": "effectively reduced protein levels of both factors"}, {"measurement": "IL-6 mRNA levels", "setting": "IL-6", "result": "decreases synthesis of the inflammatory component"}, {"measurement": "p21 mRNA level", "setting": "p21 [2]", "result": "reduces the gene expression of senescence factor p21"}]}]}
